Results on seven compounds are retold here after patent US9175024B2, “Platinum compound having amino or alkylamino-containing succinic acid derivatives as leaving group, preparation method thereof, and use thereof” (BEIJING FSWELCOME TECHNOLOGY DEVELOPMENT CO., LTD., priority 2011, dated 2015).

As a reminder, the IC50 is the concentration that gives 50% inhibition. By solubility is commonly meant the dissolved amount per volume that the medium holds. Lower therefore signals a poorly soluble substance.

SMILES strings stand for the structures.

One data set deals with breast cancer MCF-7. Description: In vivo antitumor activity, breast cancer MCF-7 in nude mice. To be noted: MCF-7 in female nude mice, 10 mg (platinum)/kg, once a week, 4 times, tumor weighed 4 weeks later.
The next data set deals with Esophagus cancer ECA109. Description: MTT cytotoxicity, esophagus cancer ECA109. It is filed as cell-based. To be noted: n = 6, Esophagus cancer ECA109. Here is the method: (§1) Several kinds of tumor cells in exponential growth phase were prepared into single cell suspension, inoculated on 96 pore plat at the density of 4×10^4/hole, cultivated for 24 hours to enable to adhere to wall with 1640 culture medium containing 10% fetal calf serum (complete medium) at 37° C.; the final culture volume was 100 μl. Cell morphology was observed after culture for 24 hours.

Data set [1] is described as follows: Solubility in water of the embodiment and contrast compounds.
For another data set, the system named is Gastric cancer MGC803. Description: MTT cytotoxicity, gastric cancer MGC803. It is filed as cell-based. To be noted: n = 6, Gastric cancer MGC803. Here is the method:
as §1

The next data set concerns Testis cell ST. Description: MTT cytotoxicity, testis cell ST. It is filed as cell-based. To be noted: n = 6, Testis cell ST. Here is the method:
as §1

The subject of a further data set is Lung cancer H292. Description: MTT cytotoxicity, lung cancer H292. It is filed as cell-based. To be noted: n = 6, Lung cancer H292. The procedure: as §1
In the next data set the test system is normal mice. Description: Acute toxic effect of platinum complex on normal mice (LD50, single intravenous administration). It is filed as in vivo, Kunming mice. To be noted: single intravenous administration in 5% glucose solution, 14 days observation, Bliss method. The procedure:
Kunming mice at 4˜6 weeks old and at the weight of 18˜22 g were taken, 50% male and 50% female. Embodiment platinum compound was dissolved with 5% glucose solution. […] Mortality and toxicity were observed after administration, totally observing 14 days, LD50 value was calculated with Bliss method according to mortality.

Turning to `CCN(CC)CCCC(CC(=O)[O-])C(=O)[O-].NC1CC1N.[Pt+2]` (racemic) [Compound 17, [2-(3-diethylamino propyl)-succinato].[Cis-(1,2-trans-cyclopropyldiamine)]platinum (II)], the “Tumor inhibition rate (x ± SD)” value in the data set on breast cancer MCF-7 was 82.5 ± 11.34 9%. Besides, the IC50 in the data set with Esophagus cancer ECA109 worked out at 72 µM; in the data set on Gastric cancer MGC803, 13 µM; in the data set on Testis cell ST, 51 µM; in the data set with Lung cancer H292, 31 µM. Moreover, the solubility in data set [1] amounted to 195 mg/mL. In addition, the LD50 value in the data set on normal mice came out at 0.581 mmol/kg.
As to `CN(C)CCC(CC(=O)[O-])C(=O)[O-].NCC1CCC1CN.[Pt+2]` (racemic) [Compound 23, [2-(2-dimethylaminoethyl)-succinato].[Cis-1,4-(trans-2,3-cyclobutyl)-butyldiamine]platinum (II)], the “Tumor inhibition rate (x ± SD)” value in the data set on breast cancer MCF-7 is recorded as 85.1 ± 10.37 9%. In addition, the IC50 in the data set on Esophagus cancer ECA109 came to 102 µM; in the data set on Gastric cancer MGC803, 146 µM; in the data set on Testis cell ST it was 18 µM; in the data set on Lung cancer H292, 51 µM. The solubility in data set [1] is 165 mg/mL. In addition, the LD50 value in the data set with normal mice is on record as 0.512 mmol/kg.
As to `CCN(CC)CCC(CC(=O)[O-])C(=O)[O-].NCC1CCC1CN.[Pt+2]` (racemic) [Compound 24, [2-(2-diethylamino ethyl)-succinato].[Cis-1,4-(trans-2,3-cyclobutyl)-butanediamine]platinum (II)], the “Tumor inhibition rate (x ± SD)” value in the data set on breast cancer MCF-7 is given as 69.3 ± 10.13 9%. Moreover, the IC50 turned out to be 71 µM with Esophagus cancer ECA109, 119 µM in the data set on Gastric cancer MGC803, 12 µM with Testis cell ST and 25 µM with Lung cancer H292. In addition, the solubility in data set [1] was found to be 176 mg/mL. The LD50 value in the data set with normal mice was determined as 0.525 mmol/kg.
On to `CN(C)CCC(CC(=O)[O-])C(=O)[O-].NCCN.[Pt+2]` (stereo not drawn) [Compound 18, [2-(2-dimethylaminoethyl)-succinato].[Cis-1,2-ethyldiamine]platinum (II)], for which the “Tumor inhibition rate (x ± SD)” value in the data set on breast cancer MCF-7 was 71.8 ± 12.01 9%. Besides, the IC50 in the data set with Esophagus cancer ECA109 worked out at 62 µM; with Gastric cancer MGC803, 121 µM; in the data set on Testis cell ST, 10 µM; in the data set on Lung cancer H292, 31 µM. Moreover, the solubility in data set [1] came out at 226 mg/mL. The LD50 value in the data set on normal mice stood at 0.532 mmol/kg.
Turning to `CCN(CC)CCC1CC(=O)[O][Pt]2([NH]CCC[NH]2)[O]C1=O` (stereo not drawn) [Compound 19, [2-(2-diethylaminoethyl)-succinato].[Cis-1,3-propyldiamine]platinum (II)], in the data set with breast cancer MCF-7, the “Tumor inhibition rate (x ± SD)” value is reported as 65.3 ± 9.15 9%. Besides, the IC50 with Esophagus cancer ECA109 stood at 8 µM; in the data set with Gastric cancer MGC803, 117 µM; with Testis cell ST, 12 µM; with Lung cancer H292, 102 µM. This compound also returned a solubility in data set [1] of 200 mg/mL. The compound also had an LD50 value in the data set with normal mice of 0.454 mmol/kg.
In the case of `CCCN(CCC)CCCC(CC(=O)[O-])C(=O)[O-].NCCCCN.[Pt+2]` (stereo not drawn) [Compound 20, [2-(3-di-n-propylaminopropyl)-succinato].[Cis-1,4-butyldiamine]platinum (II)], the “Tumor inhibition rate (x ± SD)” value in the data set on breast cancer MCF-7 is reported as 66.7 ± 10.61 9%. Besides, the IC50 in the data set on Esophagus cancer ECA109 was determined as 13 µM; in the data set with Gastric cancer MGC803 it was 66 µM; in the data set on Testis cell ST, 22 µM; in the data set with Lung cancer H292, 59 µM. The solubility in data set [1] was 162 mg/mL. This compound also registered an LD50 value with normal mice of 0.513 mmol/kg.
Turning to `CCN(CC)CCCCC1CC(=O)[O][Pt]2([NH]C3CCCCC3[NH]2)[O]C1=O.O=P(O)(O)O` (stereo not drawn) [Compound 29, [2-(4-diethylamino butyl)-succinato].[Cis-(1,2-trans-cyclohexyldiamine)]platinum (II) phosphate], the “Tumor inhibition rate (x ± SD)” value in the data set on breast cancer MCF-7 is recorded as 82.2 ± 10.82 9%. For the same compound, the IC50 was found to be 6 µM in the data set on Esophagus cancer ECA109, 7 µM with Gastric cancer MGC803, 5 µM in the data set on Testis cell ST and 3 µM with Lung cancer H292. Also, in the data set with normal mice, the LD50 value amounted to 0.698 mmol/kg.
